Laboratory results reported in patent US5998376A, “Substance P treatment for immunostimulation” (priority 1998, dated 1999).

How the values were obtained:
[1] = system: immune system organs (spleen, lymph nodes and thymus); assay: Organ Weight and Total Cell Recovery, JP-8 exposed mice; assay type: in vivo, C57B16 mice; design: Spleen Weight / Thymus Weight: unit not given here
Method: (§1) At 24 hours after the last exposure, the animals were sacrificed and the effects of exposure on the immune system examined. Immune organs (spleen, thymus, blood, lymph nodes and bone marrow) were recovered and analyzed for effects on organ weight, total cell numbers, immune cell populations (by differentials), and lymphocyte subpopulations (by flow cytometry). Assays were also performed to examine the effects of exposure on immune function. […] Similar effects on immune cell subpopulations were also observed in lymph nodes. In the thymus it appeared that the immature CD4^+ CD8^+ cells were differentially lost due to exposure. […] However, these effects are prevented or ameliorated by treatment of the animals with Substance P.
Organ Weight and Total Cell Recovery: For each of the immune system organs (spleen, lymph nodes and thymus) the wet weight is determined after removal using a microbalance. After processing of the organs into single cell suspensions the cell numbers and viabilities are determined using trypan blue staining. Histochemical differentials are performed at this time. Cell numbers and viabilities are again determined after centrifugation of the cell suspensions through density gradients to obtain mononuclear cells.

[2] = system: lymphocyte subpopulations; assay: Flow cytometric analyses (FACS) of immune organs, JP-8 exposed mice; assay type: in vivo, C57B16 mice
Method: as §1
Flow cytometric analyses (FACS): One- and two-color FACS analyses are performed using a Becton-Dickinson FACStar Plus flow cytometer. Cells are stained with the indicated monoclonal antibodies according to standard procedures (Harris et al., id). Cells alone and cells reacted with conjugated isotype control, irrelevant mAbs are used as controls. Data is presented as the percentage of cells staining positive for each individual mAb.

[3] = JP-8 dose 1000 + SP or antagonist aerosol
[4] = JP-8 dose 0 + SP or antagonist aerosol
[5] = JP-8 dose 0 + antagonist aerosol

COc1ccccc1CC(=N)N1C[C@@H]2C(=O)CCC(c3ccccc3)(c3ccccc3)[C@@H]2C1 [RP, MRP-67,580, reference compound]
BM Cell Number [1, 3]: 27
LN Cell Number [1, 3]: 6.8
Spleen Cell Number [1, 3]: 37
Spleen Weight [1, 3]: 0.10
Thymus Cell Number [1, 3]: 72
Thymus Weight [1, 3]: 0.03
BM CD3, cells staining positive [2, 3]: 12%
BM CD4, cells staining positive [2, 3]: 6%
BM CD8, cells staining positive [2, 3]: 5%
BM CD45, cells staining positive [2, 3]: 42%
BM MAC1, cells staining positive [2, 3]: 10%
LN CD3, cells staining positive [2, 3]: 96%
LN CD4, cells staining positive [2, 3]: 41%
LN CD8, cells staining positive [2, 3]: 29%
LN CD45, cells staining positive [2, 3]: 18%
LN MAC1, cells staining positive [2, 3]: 1%
PBL CD3, cells staining positive [2, 3]: 71%
PBL CD4, cells staining positive [2, 3]: 18%
PBL CD8, cells staining positive [2, 3]: 10%
PBL CD45, cells staining positive [2, 3]: 38%
PBL MAC1, cells staining positive [2, 3]: 9%
Spleen CD3, cells staining positive [2, 3]: 47%
Spleen CD4, cells staining positive [2, 3]: 16%
Spleen CD8, cells staining positive [2, 3]: 5%
Spleen CD45, cells staining positive [2, 3]: 39%
Spleen MAC1, cells staining positive [2, 3]: 1%
Thymus CD3, cells staining positive [2, 3]: 16%
Thymus DN, cells staining positive [2, 3]: 10%
Thymus DP, cells staining positive [2, 3]: 70%
Thymus SP4, cells staining positive [2, 3]: 12%
Thymus SP8, cells staining positive [2, 3]: 8%

COc1ccccc1CN[C@H]1C2CCN(CC2)[C@H]1C(c1ccccc1)c1ccccc1 [CP, CP-96,345, reference compound]
BM Cell Number [1, 4]: 29
LN Cell Number [1, 4]: 9.8
Spleen Cell Number [1, 4]: 16
Spleen Weight [1, 4]: 0.12
Thymus Cell Number [1, 4]: 50
Thymus Weight [1, 4]: 0.12
BM Cell Number [1, 3]: 22
LN Cell Number [1, 3]: 7.1
Spleen Cell Number [1, 3]: 7
Spleen Weight [1, 3]: 0.16
Thymus Cell Number [1, 3]: 75
Thymus Weight [1, 3]: 0.12
BM CD3, cells staining positive [2, 4]: 16%
BM CD4, cells staining positive [2, 4]: 9%
BM CD8, cells staining positive [2, 4]: 7%
BM CD45, cells staining positive [2, 4]: 27%
BM MAC1, cells staining positive [2, 4]: 33%
Spleen CD3, cells staining positive [2, 4]: 32%
Spleen CD4, cells staining positive [2, 4]: 21%
Spleen CD8, cells staining positive [2, 4]: 7%
Spleen CD45, cells staining positive [2, 4]: 24%
Spleen MAC1, cells staining positive [2, 4]: 3%
Thymus CD3, cells staining positive [2, 4]: 18%
Thymus DN, cells staining positive [2, 4]: 13%
Thymus DP, cells staining positive [2, 4]: 75%
Thymus SP4, cells staining positive [2, 4]: 12%
Thymus SP8, cells staining positive [2, 4]: 3%
LN CD3, cells staining positive [2, 5]: 49%
LN CD4, cells staining positive [2, 5]: 25%
LN CD8, cells staining positive [2, 5]: 12%
LN CD45, cells staining positive [2, 5]: 15%
LN MAC1, cells staining positive [2, 5]: 1%
PBL CD3, cells staining positive [2, 5]: 72%
PBL CD4, cells staining positive [2, 5]: 29%
PBL CD8, cells staining positive [2, 5]: 13%
PBL CD45, cells staining positive [2, 5]: 12%
PBL MAC1, cells staining positive [2, 5]: 7%
BM CD3, cells staining positive [2, 3]: 14%
BM CD4, cells staining positive [2, 3]: 7%
BM CD8, cells staining positive [2, 3]: 3%
BM CD45, cells staining positive [2, 3]: 41%
BM MAC1, cells staining positive [2, 3]: 26%
LN CD3, cells staining positive [2, 3]: 95%
LN CD4, cells staining positive [2, 3]: 35%
LN CD8, cells staining positive [2, 3]: 23%
PBL CD3, cells staining positive [2, 3]: 50%
PBL CD4, cells staining positive [2, 3]: 20%
PBL CD8, cells staining positive [2, 3]: 15%
PBL CD45, cells staining positive [2, 3]: 27%
PBL MAC1, cells staining positive [2, 3]: 6%
Spleen CD3, cells staining positive [2, 3]: 34%
Spleen CD4, cells staining positive [2, 3]: 16%
Spleen CD8, cells staining positive [2, 3]: 9%
Spleen CD45, cells staining positive [2, 3]: 26%
Spleen MAC1, cells staining positive [2, 3]: 11%
Thymus CD3, cells staining positive [2, 3]: 17%
Thymus DN, cells staining positive [2, 3]: 12%
Thymus DP, cells staining positive [2, 3]: 65%
Thymus SP4, cells staining positive [2, 3]: 17%
Thymus SP8, cells staining positive [2, 3]: 7%
